Source: the NIST ThermoML archive (doi:10.1021/je7001013)

Experiments:
[1] = refractive index (Na D-line) (dimensionless); settings: 101.33 kPa, Liquid
[2] = xn = mol fraction of the nth substance listed
[3] = refractive index (Na D-line) (dimensionless); xn = mol fraction of the nth substance listed; settings: 101 kPa, Liquid

CC(C)S(=O)C(C)C [2,2'-sulfinylbispropane]
Settings	surface tension liquid-gas [mN/m]
298.15 K	31.8
303.15 K	31.2
308.15 K	30.7
313.15 K	30.3
318.15 K	29.8
323.15 K	29.5
328.15 K	29.1

[1]
Settings	refractive index
298.15 K	1.4645
303.15 K	1.462
308.15 K	1.4595

CC(C)S(=O)C(C)C [2,2'-sulfinylbispropane] + O
Settings	refractive index, [3]	surface tension liquid-gas, [2] [mN/m]
298.15 K, x1 = 0.0087	1.3435	52.5
298.15 K, x1 = 0.0197	1.353	48.8
298.15 K, x1 = 0.0505	1.38	–
298.15 K, x1 = 0.0987	1.407	–
298.15 K, x1 = 0.4035	1.453	35.9
298.15 K, x1 = 0.6002	1.46	33.9
298.15 K, x1 = 0.7756	1.4625	32.6
298.15 K, x1 = 0.8899	1.4635	32.2
303.15 K, x1 = 0.0087	1.343	52.4
303.15 K, x1 = 0.0197	1.352	48.1
303.15 K, x1 = 0.0505	1.3785	42.9
303.15 K, x1 = 0.0987	1.406	–
303.15 K, x1 = 0.4035	1.451	34.6
303.15 K, x1 = 0.6002	1.4575	33.3
303.15 K, x1 = 0.7756	1.461	32.1
303.15 K, x1 = 0.8899	1.4625	31.7
308.15 K, x1 = 0.0087	1.342	51.5
308.15 K, x1 = 0.0197	1.3515	47.3
308.15 K, x1 = 0.0505	1.3775	41.8
308.15 K, x1 = 0.0987	1.404	35.1
308.15 K, x1 = 0.4035	1.448	34.1
308.15 K, x1 = 0.6002	1.456	32.7
308.15 K, x1 = 0.7756	1.459	31.5
308.15 K, x1 = 0.8899	1.4605	31.1
313.15 K, x1 = 0.0087	–	50.6
313.15 K, x1 = 0.0197	–	46.6
313.15 K, x1 = 0.0505	–	41.2
313.15 K, x1 = 0.0987	–	36
313.15 K, x1 = 0.4035	–	33.4
313.15 K, x1 = 0.6002	–	32.1
313.15 K, x1 = 0.7756	–	30.9
313.15 K, x1 = 0.8899	–	30.6
318.15 K, x1 = 0.0087	–	49.8
318.15 K, x1 = 0.0197	–	45.8
318.15 K, x1 = 0.0505	–	40.6
318.15 K, x1 = 0.0987	–	37
318.15 K, x1 = 0.4035	–	32.8
318.15 K, x1 = 0.6002	–	31.5
318.15 K, x1 = 0.7756	–	30.3
318.15 K, x1 = 0.8899	–	30
323.15 K, x1 = 0.0087	–	48.9
323.15 K, x1 = 0.0197	–	45
323.15 K, x1 = 0.0505	–	39.9
323.15 K, x1 = 0.0987	–	36.7
323.15 K, x1 = 0.4035	–	31.8
323.15 K, x1 = 0.6002	–	30.4
323.15 K, x1 = 0.7756	–	29.8
323.15 K, x1 = 0.8899	–	29.5
328.15 K, x1 = 0.0087	–	48
328.15 K, x1 = 0.0197	–	43.7
328.15 K, x1 = 0.0505	–	39.7
328.15 K, x1 = 0.0987	–	36.4
328.15 K, x1 = 0.4035	–	31
328.15 K, x1 = 0.6002	–	29.8
328.15 K, x1 = 0.7756	–	29.3
328.15 K, x1 = 0.8899	–	28.9

CC[S+]([O-])CC [diethyl sulfoxide]
Settings	surface tension liquid-gas [mN/m]
298.15 K	34.6
303.15 K	34.1
308.15 K	33.7
313.15 K	33.2
318.15 K	32.7
323.15 K	32.4
328.15 K	32

[1]
Settings	refractive index
298.15 K	1.468
303.15 K	1.466
308.15 K	1.464

CC[S+]([O-])CC [diethyl sulfoxide] + O
Settings	refractive index, [3]	surface tension liquid-gas, [2] [mN/m]
298.15 K, x1 = 0.0099	1.3415	65.5
298.15 K, x1 = 0.0207	–	62.5
298.15 K, x1 = 0.0513	1.3735	55.4
298.15 K, x1 = 0.1001	1.399	50.9
298.15 K, x1 = 0.1999	1.43	46
298.15 K, x1 = 0.2999	1.446	42.8
298.15 K, x1 = 0.4091	1.457	–
298.15 K, x1 = 0.4908	–	40.4
298.15 K, x1 = 0.5189	1.458	–
298.15 K, x1 = 0.5803	1.4605	–
298.15 K, x1 = 0.7123	1.4645	37.6
298.15 K, x1 = 0.7741	1.466	–
303.15 K, x1 = 0.0099	1.332	64.8
303.15 K, x1 = 0.0207	–	61.5
303.15 K, x1 = 0.0513	1.3675	54.9
303.15 K, x1 = 0.1001	1.373	50.2
303.15 K, x1 = 0.1999	1.428	45.2
303.15 K, x1 = 0.2999	1.4445	42
303.15 K, x1 = 0.4091	1.4555	–
303.15 K, x1 = 0.4908	–	39.8
303.15 K, x1 = 0.5189	1.457	–
303.15 K, x1 = 0.5803	1.4585	–
303.15 K, x1 = 0.7123	1.463	37.1
303.15 K, x1 = 0.7741	1.464	–
308.15 K, x1 = 0.0099	1.3315	64.1
308.15 K, x1 = 0.0207	–	60.4
308.15 K, x1 = 0.0513	1.3685	54
308.15 K, x1 = 0.1001	1.372	49.5
308.15 K, x1 = 0.1999	1.4265	44.2
308.15 K, x1 = 0.2999	1.443	41.9
308.15 K, x1 = 0.4091	1.453	–
308.15 K, x1 = 0.4908	–	39.3
308.15 K, x1 = 0.5189	1.455	–
308.15 K, x1 = 0.5803	1.4565	–
308.15 K, x1 = 0.7123	1.4615	37
308.15 K, x1 = 0.7741	1.462	–
313.15 K, x1 = 0.0099	–	62.8
313.15 K, x1 = 0.0207	–	59.3
313.15 K, x1 = 0.0513	–	53.1
313.15 K, x1 = 0.1001	–	48.4
313.15 K, x1 = 0.1999	–	47.1
313.15 K, x1 = 0.2999	–	44.3
313.15 K, x1 = 0.4908	–	38.6
313.15 K, x1 = 0.7123	–	36.5
318.15 K, x1 = 0.0099	–	61.8
318.15 K, x1 = 0.0207	–	58.4
318.15 K, x1 = 0.0513	–	52.4
318.15 K, x1 = 0.1001	–	47.7
318.15 K, x1 = 0.1999	–	46.1
318.15 K, x1 = 0.2999	–	43.2
318.15 K, x1 = 0.4908	–	38
318.15 K, x1 = 0.7123	–	35.7
323.15 K, x1 = 0.0099	–	60.8
323.15 K, x1 = 0.0207	–	56.8
323.15 K, x1 = 0.0513	–	50.5
323.15 K, x1 = 0.1001	–	46.5
323.15 K, x1 = 0.1999	–	45.3
323.15 K, x1 = 0.2999	–	41.6
323.15 K, x1 = 0.4908	–	37.3
323.15 K, x1 = 0.7123	–	35
328.15 K, x1 = 0.0099	–	59.9
328.15 K, x1 = 0.0207	–	56.4
328.15 K, x1 = 0.0513	–	49.7
328.15 K, x1 = 0.1001	–	45.7
328.15 K, x1 = 0.1999	–	43.4
328.15 K, x1 = 0.2999	–	40.7
328.15 K, x1 = 0.4908	–	36.6
328.15 K, x1 = 0.7123	–	34.4
